From ChEMBL document CHEMBL5303711, “ECBD screening data for assay EOS300108” (2023) come the findings set out here.

A short description of the data set: Cytotoxicity activity against human HepG2 cells assessed by CellTiter-Glo luminescent cell viability assay. The class given is toxicity, cell-based. Conditions: HepG2 cells, read-out: IC50 relative. Also on record: assay stage confirmatory assay, source tissue liver. (In general: Cellular ATP, detected with luciferase, serves as a proxy for viable cell number.)

The structures appear in SMILES notation. Where a name gives a salt, the structure may show the parent alone. Calls of active or inactive are those of the source. How the calls were made is not given here. Bounds are passed on as bounds.

`O=c1[nH]c2ccccc2n1C1CCN(CCCC(c2ccc(F)cc2)c2ccc(F)cc2)CC1` [PIMOZIDE]: the CC50 was 4.6 µM (active).
As for `O=C(c1c(F)ccc(NS(=O)(=O)N2CC[C@@H](F)C2)c1F)c1c[nH]c2ncc(-c3cnc(C4CC4)nc3)cc12` [PLIXORAFENIB], the CC50 was 5.4 µM (active).
In the case of `Cc1ccc(C(=O)Nc2ccc(CN3CCN(C)CC3)c(C(F)(F)F)c2)cc1C#Cc1cnc2cccnn12` [PONATINIB], the CC50 is 0.3 µM (active).
For `CC[C@@H]([C@H](C)O)n1ncn(-c2ccc(N3CCN(c4ccc(OC[C@@H]5CO[C@@](Cn6cncn6)(c6ccc(F)cc6F)C5)cc4)CC3)cc2)c1=O` [POSACONAZOLE], the CC50 was 19.6 µM (inactive).
As for `C=CC(=O)N1CCC(Oc2cc3c(Nc4ccc(Cl)c(Cl)c4F)ncnc3cc2OC)CC1` [POZIOTINIB], the CC50 was 18.7 µM (inactive).
Next, `C#CCC(Cc1cnc2nc(N)nc(N)c2n1)c1ccc(C(=O)N[C@@H](CCC(=O)O)C(=O)O)cc1` (stereo not given in full) [PRALATREXATE]: < 0.1 µM (active); `CO[C@]1(C(=O)N[C@@H](C)c2ccc(-n3cc(F)cn3)nc2)CC[C@H](c2nc(C)cc(Nc3cc(C)[nH]n3)n2)CC1` [PRALSETINIB]: 9.3 µM (active); `COc1cc2nc(N3CCN(C(=O)c4ccco4)CC3)nc(N)c2cc1OC` [PRAZOSIN HYDROCHLORIDE]: 6.6 µM (active).
Turning to `C=CC(=O)N1CCN(CCCn2c(=O)c(-c3c(Cl)c(OC)cc(OC)c3Cl)cc3cnc(NC)nc32)CC1` [PRN-1371], the CC50 is 9.6 µM (active).
Next, `O=C(CCN1CCC(c2ccccc2)C1)c1ccc2c(c1)OCCO2` (stereo not given) [PROROXAN HYDROCHLORIDE]: 8.4 µM (active); `CNCCCC1c2ccccc2C=Cc2ccccc21` [PROTRIPTYLINE HYDROCHLORIDE]: 8.9 µM (active).
Regarding `CC(C)[C@H](CO)Nc1nc(Nc2cccc(Cl)c2)c2ncn(C(C)C)c2n1` [PURVALANOLA], the CC50 is 14.4 µM (active).
Consider `CC(C)(C)c1ccc(CSc2cnn(C(C)(C)C)c(=O)c2Cl)cc1` [PYRIDABEN], for which the CC50 was 0.3 µM (active).
As to `CCc1nc(N)nc(N)c1-c1ccc(Cl)cc1` [PYRIMETHAMINE], the CC50 was 6 µM (active).
Consider `[O-][n+]1ccccc1S` [PYRITHIONE], for which the CC50 was 1.1 µM (active).
In the case of `CCN(CC)CCCC(C)Nc1c2ccc(Cl)cc2nc2ccc(OC)cc12` (stereo not given) [QUINACRINE DIHYDROCHLORIDE], the CC50 is 1.1 µM (active).
For the compound `Cc1cnc(NC(=O)Nc2cc(Br)c(C)cc2OC[C@@H]2CNCCO2)cn1` [RABUSERTIB], the CC50 was 5.9 µM (active).
For `Cn1c(Nc2ccc(C(F)(F)F)cc2)nc2cc(Oc3ccnc(-c4ncc(C(F)(F)F)[nH]4)c3)ccc21` [RAF-265] the value was 1.5 µM (active).
On to `CC(C)(C)Cn1c(N)nc2ccc(-c3[nH]c(C(C)(C)C)nc3-c3ccc(F)cc3)nc21` [RALIMETINIB MESYLATE], for which the CC50 was 13.2 µM (active).
Regarding `Cn1nccc1Nc1nccc(-c2ccn([C@H](CO)c3ccc(Cl)c(F)c3)c(=O)c2)n1` [RAVOXERTINIB], the CC50 was 0.7 µM (active).
In the case of `COc1cc(F)c(F)c(Nc2ccc(I)cc2F)c1NS(=O)(=O)C1(C[C@H](O)CO)CC1` [REFAMETINIB], the CC50 was 0.1 µM (active).
As for `CNC(=O)c1cc(Oc2ccc(NC(=O)Nc3ccc(Cl)c(C(F)(F)F)c3)c(F)c2)ccn1` [REGORAFENIB], the CC50 is 1.7 µM (active).
As to `C[C@H]1CNC(=O)c2cnn3ccc(nc23)N[C@H](C)c2cc(F)ccc2O1` [REPOTRECTINIB], the CC50 is 3.7 µM (active).
With `COC(=O)[C@H]1[C@H]2C[C@@H]3c4[nH]c5cc(OC)ccc5c4CCN3C[C@H]2C[C@@H](OC(=O)c2cc(OC)c(OC)c(OC)c2)[C@@H]1OC` [RESERPINE], the CC50 is 11.8 µM (active).
Take `CN(CCN1CCC(OC(=O)Nc2ccccc2-c2ccccc2)CC1)C(=O)c1ccc(CN2CCC(C(N)=O)CC2)cc1` [REVEFENACIN]: the CC50 was 13.2 µM (active).
Next, `COc1ccc(F)c(F)c1C(=O)c1cnc(NC2CCN(S(C)(=O)=O)CC2)nc1N` [RG-547]: 0.5 µM (active); `COCCN1CCN(Cc2ccc(-c3n[nH]c4c3C(=O)c3c(NC(=O)NN5CCOCC5)cccc3-4)cc2)CC1` [RGB-286638]: 0.2 µM (active); `O=C(CCCCCCNC(=O)c1cnc(N(c2ccccc2)c2ccccc2)nc1)NO` [RICOLINOSTAT]: 3.5 µM (active).
In the case of `Cc1cc(/C=C/C#N)cc(C)c1Nc1ccnc(Nc2ccc(C#N)cc2)n1` [RILPIVIRINE], the CC50 was 11 µM (inactive).
`CCOc1cc(C(C)(C)C)ccc1C1=N[C@@](C)(c2ccc(Cl)cc2)[C@@](C)(c2ccc(Cl)cc2)N1C(=O)N1CCN(CCCS(C)(=O)=O)CC1` [RO-5045337]: the CC50 was 6.3 µM (active).
For `C[C@@H](OC[C@@]1(c2ccccc2)CC[C@]2(CCC(=O)N2)CN1)c1cc(C(F)(F)F)cc(C(F)(F)F)c1` [ROLAPITANT] the value was 8.9 µM (active); for `C=C(C)[C@H]1Cc2c(ccc3c2O[C@@H]2COc4cc(OC)c(OC)cc4[C@@H]2C3=O)O1` [ROTENONE], 0.5 µM (active); for `O=C(N/N=C/c1ccccc1O)c1ccncc1` [SALINAZID], 9.5 µM (active).
`OCc1cc(C(O)CNCCCCCCOCCCCc2ccccc2)ccc1O` (stereo not given) [SALMETEROL]: the CC50 is 6.6 µM (active).
As for `CC(C)n1nc(-c2ccc3oc(N)nc3c2)c2c(N)ncnc21` [SAPANISERTIB], the CC50 is 0.2 µM (active).
For `Cn1cc(-c2cnn3c(N)c(Br)c([C@@H]4CCCNC4)nc23)cn1` [SCH-900776] the value was 10.9 µM (active); for `CC[C@H](CO)Nc1nc(NCc2ccccc2)c2ncn(C(C)C)c2n1` [SELICICLIB], 7.8 µM (active); for `Cc1cc(F)c(C(=O)Nc2cccc(-c3nncn3C(C)C)n2)cc1-n1cnc(C2CC2)c1` [SELONSERTIB], 12.3 µM (active).
`O=C1NCCN1CCN1CCC(c2cn(-c3ccc(F)cc3)c3ccc(Cl)cc23)CC1` [SERTINDOLE]: the CC50 was 2.7 µM (active).
Consider `CN1CCC(CNc2ccc3ncc(-c4cccc(OC(F)(F)F)c4)n3n2)CC1` [SGI-1776], for which the CC50 is 1.5 µM (active).
Regarding `CCC(C)(C)C(=O)O[C@H]1C[C@@H](C)C=C2C=C[C@H](C)[C@H](CC[C@@H]3C[C@@H](O)CC(=O)O3)[C@H]21` [SIMVASTATIN], the CC50 was 17.1 µM (inactive).
Turning to `CO[C@H]1C[C@@H]2CC[C@@H](C)[C@@](O)(O2)C(=O)C(=O)N2CCCC[C@H]2C(=O)O[C@H]([C@H](C)C[C@@H]2CC[C@@H](O)[C@H](OC)C2)CC(=O)[C@H](C)/C=C(\C)[C@@H](O)[C@@H](OC)C(=O)[C@H](C)C[C@H](C)/C=C/C=C/C=C/1C` [SIROLIMUS], the CC50 is 17.5 µM (inactive).
Consider `COCCNCc1ccc(-c2cc3nccc(Oc4ccc(NC(=O)C5(C(=O)Nc6ccc(F)cc6)CC5)cc4F)c3s2)nc1` [SITRAVATINIB], for which the CC50 is 4.6 µM (active).
With `O=C(Nc1cccc(Cl)c1)Nc1ncc(CCNc2ncnc3ccsc23)s1` [SNS-314 MESYLATE], the CC50 is 10.1 µM (active).
`CC1(C)CC(=O)c2c(C(F)(F)F)nn(-c3ccc(C(N)=O)c(N[C@H]4CC[C@H](O)CC4)c3)c2C1` [SNX-2112]: the CC50 is < 0.1 µM (active).
